Experimental data: US7368433B2, “Peptides and methods for the control of obesity” (University of Florida Research Foundation, Inc., priority 2002, dated 2008)
Read-outs that look alike come from different tables or passages of the source.

Experiments:
mMC4R = biological target: T1, mMC4R (Mus musculus, UniProt P56450); assay: Functional bioassay (CRE/β-galactosidase reporter), agonist activity at mMC4R; format: cell-based; conditions: HEK-293 cells stably expressing receptor; ± SEM
T1 construct: expressed in transfected cells; host or cells: HEK-293
Protocol: (§1) For cell culture and transfection, briefly, HEK-293 cells were maintained in Dulbecco's modified Eagle's medium (DMEM) with 10% fetal calf serum and seeded 1 day prior to transfection at 1 to 2×10^6 cell/100-mm dish. Melanocortin receptor DNA in the pcDNA3 expression vector (20 μg) were transfected using the calcium phosphate method. Stable receptor populations were generated using G418 selection (1 mg/mL) for subsequent bioassay analysis.
(§2) In the functional bioassay studies, HEK-293 cells stably expressing the melanocortin receptors were transfected with 4 μg CRE/β-galactosidase reporter gene as previously described in the literature. Briefly, 5,000 to 15,000 post transfection cells were plated into 96 well Primera plates (Falcon) and incubated overnight. […] The sample absorbance, OD405, was measured using a 96 well plate reader (Molecular Devices). The relative protein was determined by adding 200 μL 1:5 dilution Bio Rad G250 protein dye:water to the 10 μL cell lysate sample taken previously, and the OD595 was measured on a 96 well plate reader (Molecular Devices). […]
(§3) The pA2 values were generated using the Schild analysis method [Schild, H. O. pA2, A New Scale for the Measurement of Drug Antagonism. […] EC50 and pA2 estimates, and their associated standard errors, were determined by fitting the data to a nonlinear least-squares analysis using the PRISM program (v3.0, GraphPad Inc.).

mMC5R = biological target: T2, mMC5R (Mus musculus, UniProt P41149); assay: Functional bioassay (CRE/β-galactosidase reporter), agonist activity at mMC5R; format: cell-based; conditions: HEK-293 cells stably expressing receptor; ± SEM
T2 construct: expressed in transfected cells; host or cells: HEK-293
Protocol: as §1, §2, §3

human MC4R = biological target: T3, human MC4R (Homo sapiens, UniProt P32245); conditions: literature (Yang et al 2000; Danho et al); read-out: agonist activity at the human MC4 receptor; cited from earlier work
T3 construct: expressed in transfected cells; host or cells: HEK-293

hMC3R = hMC3R (Homo sapiens, UniProt P41968); conditions: literature (Danho et al); cited from earlier work
food intake = conditions: central / ICV administration to rodents, literature, cited from earlier work

Sequence of hMC3R (P41968 whole entry): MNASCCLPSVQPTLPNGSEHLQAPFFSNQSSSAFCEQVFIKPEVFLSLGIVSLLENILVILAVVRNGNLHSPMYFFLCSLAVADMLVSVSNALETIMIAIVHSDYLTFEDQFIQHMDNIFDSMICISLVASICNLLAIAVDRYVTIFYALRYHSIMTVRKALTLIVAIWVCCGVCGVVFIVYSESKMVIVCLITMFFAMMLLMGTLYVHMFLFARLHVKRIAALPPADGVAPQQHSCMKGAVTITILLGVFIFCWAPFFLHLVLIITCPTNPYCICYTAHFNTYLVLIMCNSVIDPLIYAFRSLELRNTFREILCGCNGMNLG
T1 sequence (P56450 whole entry): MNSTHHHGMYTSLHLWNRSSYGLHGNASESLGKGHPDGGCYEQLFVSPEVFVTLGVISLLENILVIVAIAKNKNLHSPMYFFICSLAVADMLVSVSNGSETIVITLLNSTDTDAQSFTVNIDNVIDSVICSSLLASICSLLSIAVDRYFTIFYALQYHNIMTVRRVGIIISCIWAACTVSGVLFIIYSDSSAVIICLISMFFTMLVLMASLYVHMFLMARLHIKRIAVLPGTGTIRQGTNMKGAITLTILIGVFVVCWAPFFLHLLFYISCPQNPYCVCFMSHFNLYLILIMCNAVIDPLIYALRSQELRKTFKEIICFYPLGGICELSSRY
T3 sequence (P32245 whole entry): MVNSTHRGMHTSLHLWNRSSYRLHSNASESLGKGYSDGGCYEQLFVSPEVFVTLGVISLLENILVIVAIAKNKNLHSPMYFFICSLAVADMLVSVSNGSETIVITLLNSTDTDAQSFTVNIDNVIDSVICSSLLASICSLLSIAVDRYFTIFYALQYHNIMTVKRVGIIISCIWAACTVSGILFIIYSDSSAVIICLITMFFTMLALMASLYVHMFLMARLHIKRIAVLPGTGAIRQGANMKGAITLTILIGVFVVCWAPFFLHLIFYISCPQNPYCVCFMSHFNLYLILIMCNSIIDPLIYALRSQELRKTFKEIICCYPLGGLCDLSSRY
T2 sequence (P41149 whole entry): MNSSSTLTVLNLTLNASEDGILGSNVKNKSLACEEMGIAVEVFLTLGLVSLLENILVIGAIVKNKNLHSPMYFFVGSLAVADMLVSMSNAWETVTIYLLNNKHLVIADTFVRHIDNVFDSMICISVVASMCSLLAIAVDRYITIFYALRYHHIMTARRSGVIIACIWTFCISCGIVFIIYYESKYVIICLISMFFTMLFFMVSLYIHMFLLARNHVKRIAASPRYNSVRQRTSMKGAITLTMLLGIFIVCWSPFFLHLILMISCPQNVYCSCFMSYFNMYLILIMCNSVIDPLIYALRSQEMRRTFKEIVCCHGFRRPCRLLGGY

Compound `CC(=O)N[C@@H](Cc1c[nH]cn1)C(=O)N[C@H](Cc1ccccc1)C(=O)N[C@@H](CCCNC(=N)N)C(=O)N[C@@H](Cc1c[nH]c2ccccc12)C(N)=O` [JRH279-31, Ac-His-DPhe-Arg-Trp-NH2] has an EC50 (mMC4R) of 17.2 ± 2.78 nM and an EC50 (mMC5R) of 3.96 ± 0.94 nM.

In the case of “c[Asp-(racemic)Atc-DPhe-Arg-Trp-Lys]-NH2”, the EC50 (human MC4R) is given as 65 nM and the “agonist activity at the hMC3R (in words)” value (hMC3R) is given as “only slight agonist activity”.

For “Ac-Nle-c[Asp-His-DNal(2′)-Arg-Trp-Lys]-NH2 [SHU91 19]”, the “effect on food intake” value (food intake) is listed as “increased food intake” and the “effect on food intake” value (food intake; listed as SHU-9119) is listed as “can induce hyperphagia”.
